Data taken from patent US6737383B1, “Herbicidal oxadiazolidines” (priority 1999, dated 2004).

Tests used:
[1] = test system: rape; test: Test B pre/postemergence rape; assay type: in vivo, Brassica napus
Procedure, shortened: (§1)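 Test chemicals in a non-phytotoxic solvent mixture with surfactant were sprayed preemergence onto planted seeds and postemergence onto plants 2 to 18 cm tall (1- to 4-leaf stage). After twelve to sixteen days in a greenhouse, injury was visually rated against untreated controls from 0 (no effect) to 10 (complete control).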

[2] = test system: blackgrass; test: Test B pre/postemergence blackgrass; assay type: in vivo, Alopecurus myosuroides
Procedure, shortened: as §1

[3] = test system: velvetleaf; test: Test B pre/postemergence velvetleaf; assay type: in vivo, Abutilon theophrasti
Procedure, shortened: as §1

[4] = test system: wild oat; test: Test B pre/postemergence wild oat; assay type: in vivo, Avena fatua
Procedure, shortened: as §1

[5] = test system: duck salad; test: Test B flood test duck salad; assay type: in vivo, Heteranthera limosa
Procedure, shortened: (§2)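 Each value is a visual injury score relative to controls, with 10 meaning complete control and 0 no effect. Evaluation took place twelve to sixteen days after the 2-leaf-stage plants were treated and kept in the greenhouse.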

[6] = test system: rice; test: Test B flood test rice; assay type: in vivo, Oryza sativa
Procedure, shortened: as §2

[7] = test system: soybean; test: Test B pre/postemergence soybean; assay type: in vivo, Glycine max
Procedure, shortened: as §1

[8] = test system: surinam grass; test: Test B pre/postemergence surinam grass; assay type: in vivo, Brachiaria decumbens
Procedure, shortened: as §1

[9] = test system: corn; test: Test B pre/postemergence corn; assay type: in vivo, Zea mays
Procedure, shortened: as §1

[10] = test system: cocklebur; test: Test B pre/postemergence cocklebur; assay type: in vivo, Xanthium strumarium
Procedure, shortened: as §1

[11] = test system: bamyardgrass; test: Test B flood test barnyardgrass; assay type: in vivo, Echinochloa crus-galli
Procedure, shortened: as §2

[12] = test system: morningglory; test: Test B pre/postemergence morningglory; assay type: in vivo, Ipomoea hederacea
Procedure, shortened: as §1

[13] = test system: wheat; test: Test B pre/postemergence wheat; assay type: in vivo, Triticum aestivum
Procedure, shortened: as §1

[14] = test system: giant foxtail; test: Test B pre/postemergence giant foxtail; assay type: in vivo, Setaria faberii
Procedure, shortened: as §1

[15] = test system: pigweed; test: Test B pre/postemergence pigweed; assay type: in vivo, Amaranthus retroflexus
Procedure, shortened: as §1

[16] = test system: sugar beet; test: Test B pre/postemergence sugar beet; assay type: in vivo, Beta vulgaris
Procedure, shortened: as §1

[17] = test system: purple nutsedge; test: Test B pre/postemergence purple nutsedge; assay type: in vivo, Cyperus rotundus
Procedure, shortened: as §1

[18] = test system: crabgrass; test: Test B pre/postemergence crabgrass; assay type: in vivo, Digitaria sanguinalis
Procedure, shortened: as §1

[19] = test system: bedstraw; test: Test B pre/postemergence bedstraw; assay type: in vivo, Galium aparine; conditions: Postemergence, Rate 62 g/ha; scale 0 to 10, 0 is no effect, 10 is complete control
Procedure, shortened: as §1

[20] = test system: smallflower flatsedge; test: Test B flood test smallflower flatsedge; assay type: in vivo, Cyperus difformis
Procedure, shortened: as §2

[21] = Postemergence, Rate 62 g/ha, scale 0 to 10, 0 is no effect, 10 is complete control
[22] = Postemergence, Rate 125 g/ha, scale of 0 to 10 where 0 is no effect and 10 is complete control
[23] = Postemergence, Rate 500 g/ha, scale of 0 to 10 where 0 is no effect and 10 is complete control
[24] = Preemergence, Rate 62 g/ha, scale of 0 to 10 where 0 is no effect and 10 is complete control
[25] = Preemergence, Rate 125 g/ha, scale of 0 to 10 where 0 is no effect and 10 is complete control
[26] = Preemergence, Rate 250 g/ha, scale 0 to 10 (0 no effect, 10 complete control)
[27] = Preemergence, Rate 500 g/ha, scale of 0 to 10 where 0 is no effect and 10 is complete control
[28] = Postemergence, Rate 250 g/ha, scale of 0 to 10, 0 is no effect, 10 is complete control
[29] = Rate 62 g/ha, flood test species, Pre-emergence, visual evaluation after twelve to sixteen days
[30] = Rate 125 g/ha, under heading Pre-emergence, flood test species, visual evaluation after twelve to sixteen days
[31] = Rate 250 g/ha, Pre-emergence (flood test species), scale 0 to 10, 0 is no effect, 10 is complete control
[32] = Rate 500 g/ha, Pre-emergence section of Table B, 0 to 10 scale (0 no effect, 10 complete control)

SMILES: CC(C)N(C(=O)n1oc(=O)n(CCCC#N)c1=O)c1ccc(F)cc1 [Compound 647]
- Plant response rating, Rape [1, 21]: 0
- Rape plant response rating [1, 22]: 0
- Plant response rating, Rape [1, 23]: 7
- Rape plant response rating [1, 24]: 5
- Rape plant response rating [1, 25]: 8
- Plant response rating, Rape [1, 26]: 10
- Plant response rating, Rape [1, 27]: 10
- Plant response rating, Blackgrass [2, 21]: 6
- Blackgrass plant response rating [2, 28]: 7
- Plant response rating, Blackgrass [2, 23]: 8
- Blackgrass plant response rating [2, 24]: 7
- Blackgrass plant response rating [2, 25]: 9
- Plant response rating, Blackgrass [2, 26]: 10
- Plant response rating, Blackgrass [2, 27]: 10
- Plant response rating, Velvetleaf [3, 21]: 5
- Velvetleaf plant response rating [3, 22]: 5
- Velvetleaf plant response rating [3, 24]: 6
- Velvetleaf plant response rating [3, 25]: 8
- Plant response rating, Velvetleaf [3, 26]: 8
- Plant response rating, Velvetleaf [3, 27]: 9
- Plant response rating, Wild oats [4, 21]: 0
- Wild oats plant response rating [4, 22]: 0
- Wild oats plant response rating [4, 24]: 5
- Wild oats plant response rating [4, 25]: 8
- Plant response rating, Wild oats [4, 26]: 9
- Plant response rating, Wild oats [4, 27]: 10
- Plant response rating, Ducksalad (0 to 10 scale, 0 is no effect, 10 is complete control) [5, 29]: 0
- Ducksalad plant response rating (0 to 10 scale, 0 is no effect, 10 is complete control) [5, 30]: 0
- Ducksalad plant response rating [5, 31]: 0
- Ducksalad plant response rating [5, 32]: 0
- Plant response rating, Rice (0 to 10 scale, 0 is no effect, 10 is complete control) [6, 29]: 0
- Rice plant response rating (0 to 10 scale, 0 is no effect, 10 is complete control) [6, 30]: 0
- Rice plant response rating [6, 31]: 0
- Rice plant response rating [6, 32]: 0
- Plant response rating, Soybean [7, 21]: 2
- Soybean plant response rating [7, 22]: 3
- Soybean plant response rating [7, 24]: 0
- Soybean plant response rating [7, 25]: 0
- Plant response rating, Soybean [7, 26]: 1
- Plant response rating, Soybean [7, 27]: 1
- Plant response rating, B. signalgrass [8, 21]: 4
- Plant response rating, B. signalgrass [8, 22]: 6
- B. signalgrass plant response rating [8, 28]: 7
- Plant response rating, B. signalgrass [8, 23]: 8
- B. signalgrass plant response rating [8, 24]: 3
- B. signalgrass plant response rating [8, 25]: 7
- Plant response rating, B. signalgrass [8, 26]: 9
- Plant response rating, B. signalgrass [8, 27]: 10
- Plant response rating, Corn [9, 21]: 0
- Corn plant response rating [9, 22]: 2
- Corn plant response rating [9, 28]: 5
- Plant response rating, Corn [9, 23]: 6
- Corn plant response rating [9, 24]: 0
- Corn plant response rating [9, 25]: 3
- Plant response rating, Corn [9, 26]: 5
- Plant response rating, Corn [9, 27]: 10
- Plant response rating, Cocklebur [10, 21]: 0
- Cocklebur plant response rating [10, 22]: 0
- Cocklebur plant response rating [10, 28]: 4
- Plant response rating, Cocklebur [10, 23]: 4
- Cocklebur plant response rating [10, 24]: 0
- Cocklebur plant response rating [10, 25]: 0
- Plant response rating, Cocklebur [10, 26]: 1
- Plant response rating, Cocklebur [10, 27]: 7
- Plant response rating, Barnyardgrass (0 to 10 scale, 0 is no effect, 10 is complete control) [11, 29]: 0
- Barnyardgrass plant response rating (0 to 10 scale, 0 is no effect, 10 is complete control) [11, 30]: 0
- Barnyardgrass plant response rating [11, 31]: 0
- Barnyardgrass plant response rating [11, 32]: 0
- Plant response rating, Morningglory [12, 21]: 0
- Morningglory plant response rating [12, 22]: 0
- Morningglory plant response rating [12, 28]: 2
- Plant response rating, Morningglory [12, 23]: 6
- Morningglory plant response rating [12, 24]: 0
- Morningglory plant response rating [12, 25]: 0
- Plant response rating, Morningglory [12, 26]: 7
- Plant response rating, Morningglory [12, 27]: 7
- Plant response rating, Wheat [13, 21]: 0
- Wheat plant response rating [13, 22]: 3
- Wheat plant response rating [13, 24]: 1
- Wheat plant response rating [13, 25]: 6
- Plant response rating, Wheat [13, 26]: 8
- Plant response rating, Wheat [13, 27]: 8
- Plant response rating, Giant foxtail [14, 21]: 8
- Giant foxtail plant response rating [14, 22]: 9
- Giant foxtail plant response rating [14, 28]: 9
- Plant response rating, Giant foxtail [14, 23]: 9
- Giant foxtail plant response rating [14, 24]: 9
- Giant foxtail plant response rating [14, 25]: 10
- Plant response rating, Giant foxtail [14, 26]: 10
- Plant response rating, Giant foxtail [14, 27]: 10
- Plant response rating, Redroot pigweed [15, 21]: 0
- Redroot pigweed plant response rating [15, 22]: 4
- Redroot pigweed plant response rating [15, 24]: 10
- Redroot pigweed plant response rating [15, 25]: 10
- Plant response rating, Redroot pigweed [15, 26]: 10
- Plant response rating, Redroot pigweed [15, 27]: 10
- Plant response rating, Sugarbeets [16, 21]: 1
- Sugarbeets plant response rating [16, 22]: 2
- Sugarbeets plant response rating [16, 24]: 7
- Sugarbeets plant response rating [16, 25]: 8
- Plant response rating, Sugarbeets [16, 26]: 8
- Plant response rating, Sugarbeets [16, 27]: 8
- Plant response rating, Nutsedge [17, 21]: 0
- Nutsedge plant response rating [17, 22]: 0
- Plant response rating, Nutsedge [17, 23]: 6
- Nutsedge plant response rating [17, 24]: 0
- Nutsedge plant response rating [17, 25]: 0
- Plant response rating, Crabgrass [18, 21]: 7
- Crabgrass plant response rating [18, 22]: 9
- Crabgrass plant response rating [18, 28]: 9
- Plant response rating, Crabgrass [18, 23]: 9
- Crabgrass plant response rating [18, 24]: 8
- Crabgrass plant response rating [18, 25]: 8
- Plant response rating, Crabgrass [18, 26]: 9
- Plant response rating, Crabgrass [18, 27]: 9
- Plant response rating, Bedstraw [19]: 0
- Plant response rating, S. Flatsedge (0 to 10 scale, 0 is no effect, 10 is complete control) [20, 29]: 0
- S. Flatsedge plant response rating (0 to 10 scale, 0 is no effect, 10 is complete control) [20, 30]: 0
- S. Flatsedge plant response rating [20, 31]: 0
- S. Flatsedge plant response rating [20, 32]: 0
